From patent US8247424B2, “Fredericamycin derivatives” (Zentopharm GmbH, priority 2002, dated 2012)
Values after ≈ are worked out from the molar mass of the structure shown.

Assay: Biological activity against 12 cancer cell lines, efficacy (IC70) averaged over all cell lines;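 also: panel also covers renal lines RXF 944L and RXF 486L, uterine UXF 1138L, and prostate lines PRXF PC3M and PRXF 22RV1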
Type: cell-based
Settings: averaged over all 12 cancer cell lines, 5 test concentrations
Description: LCL (H460, lung), MACL (MCF7, breast), LXFL (52L, lung), LXFA (629L, lung), MEXF (462NL, melanoma), MEXF (514L, melanoma), MAXF (401NL, breast), RXF (944L, renal), RXF (486L, renal), UXF (1138L, uterus), PRXF (PC3M, prostate), PRXF (22RV1).

| SMILES | IC70 |
| --- | --- |
| COC1=CC(=O)c2c(O)c3c(c(O)c2C1=O)C(=O)[C@]1(CCc2cc4cc(C=NOCc5ccc(Cl)cc5)[nH]c(=O)c4c(O)c21)C3=O [Example 217, (8S)-4′,9,9′-trihydroxy-6′-methoxy-1,1′,3′,5′,8′-pentaoxo-1,1′,2,3′,5′,6,7,8′-octahydrospiro[cyclopenta[g]isoquinoline-8,2′-cyclopenta[b]-naphthalene]-3-carbaldehyde O-(4-chlorobenzyl)oxime] | 0.129 µg/mL (≈ 0.201 µM) |
| C/C=C/C=C/c1cc2c(F)c3c(c(O)c2c(=O)[nH]1)[C@@]1(CC3)C(=O)c2c(O)c3c(c(O)c2C1=O)C(=O)C(OC)=CC3=O [Example 23, (8S)-5-fluoro-4′,9,9′-trihydroxy-6′-methoxy-3-[(1E,3E)-penta-1,3-dienyl]-6,7-dihydrospiro[cyclopenta[g]isoquinoline-8,2′-cyclopenta[b]-naphthalene]-1,1′,3′,5′,8′(2H)-pentone] | 0.011 µg/mL (≈ 0.0197 µM) |
| COC1=CC(=O)c2c(O)c3c(c(O)c2C1=O)C(=O)C1(CCc2cc4cc(C=NOCc5ccccc5)[nH]c(=O)c4c(O)c21)C3=O (centres unmarked) [Example 121, 4′,9,9′-Trihydroxy-6′-methoxy-1,1′,3′,5′,8′-pentaoxo-1,1′,2,3′,5′,6,7,8′-octahydrospiro[cyclopenta[g]isoquinoline-8,2′-cyclopenta[b]-naphthalene]-3-carbaldehyde O-benzyloxime] | 0.202 µg/mL (≈ 0.333 µM) |
| COC1=CC(=O)c2c(O)c3c(c(O)c2C1=O)C(=O)[C@]1(CCc2c1c(O)c1c(=O)[nH]c(C=NOCc4ccc(Cl)cc4)cc1c2I)C3=O [Example 232, (8S)-5-iodo-4′,9,9′-trihydroxy-6′-methoxy-1,1′,3′,5′,8′-pentaoxo-1,1′,2,3′,5′,6,7,8′-octahydrospiro[cyclopenta[g]isoquinoline-8,2′-cyclopenta[b]-naphthalene]-3-carbaldehyde O-(4-chlorobenzyl)oxime] | 0.317 µg/mL (≈ 0.413 µM) |
| COC1=CC(=O)c2c(O)c3c(c(O)c2C1=O)C(=O)[C@]1(CCc2c1c(O)c1c(=O)[nH]c(C=NO)cc1c2Br)C3=O [Example 198, (8S)-5-bromo-4′,9,9′-trihydroxy-6′-methoxy-1,1′,3′,5′,8′-pentaoxo-1,1′,2,3′,5′,6,7,8′-octahydrospiro[cyclopenta[g]isoquinoline-8,2′-cyclopenta[b]-naphthalene]-3-carbaldehyde oxime] | 0.256 µg/mL (≈ 0.43 µM) |
| CON=Cc1cc2c(Br)c3c(c(O)c2c(=O)[nH]1)[C@@]1(CC3)C(=O)c2c(O)c3c(c(O)c2C1=O)C(=O)C(OC)=CC3=O [Example 196, (8S)-5-bromo-4′,9,9′-trihydroxy-6′-methoxy-1,1′,3′,5′,8′-pentaoxo-1,1′,2,3′,5′,6,7,8′-octahydrospiro[cyclopenta[g]isoquinoline-8,2′-cyclopenta[b]-naphthalene]-3-carbaldehyde O-methyloxime] | 0.095 µg/mL (≈ 0.156 µM) |
| COC1=CC(=O)c2c(O)c3c(c(O)c2C1=O)C(=O)[C@]1(CCc2c1c(O)c1c(=O)[nH]c(C=NOCCN4CCOCC4)cc1c2I)C3=O [Example 235, (8S)-5-iodo-4′,9,9′-trihydroxy-6′-methoxy-1,1′,3′,5′,8′-pentaoxo-1,1′,2,3′,5′,6,7,8′-octahydrospiro[cyclopenta[g]isoquinoline-8,2′-cyclopenta[b]-naphthalene]-3-carbaldehyde O-[2-morpholine-4-yl-ethyl)oxime] | 0.081 µg/mL (≈ 0.107 µM) |
| CCCCCCON=Cc1cc2cc3c(c(O)c2c(=O)[nH]1)[C@@]1(CC3)C(=O)c2c(O)c3c(c(O)c2C1=O)C(=O)C(OC)=CC3=O [Example 215, (8S)-4′,9,9′-trihydroxy-6′-methoxy-1,1′,3′,5′,8′-pentaoxo-1,1′,2,3′,5′,6,7,8′-octahydrospiro[cyclopenta[g]isoquinoline-8,2′-cyclopenta[b]-naphthalene]-3-carbaldehyde O-n-hexyloxime] | 0.072 µg/mL (≈ 0.12 µM) |
| CCCCCCON=Cc1cc2c(Br)c3c(c(O)c2c(=O)[nH]1)[C@@]1(CC3)C(=O)c2c(O)c3c(c(O)c2C1=O)C(=O)C(OC)=CC3=O [Example 225, (8S)-5-bromo-4′,9,9′-trihydroxy-6′-methoxy-1,1′,3′,5′,8′-pentaoxo-1,1′,2,3′,5′,6,7,8′-octahydrospiro[cyclopenta[g]isoquinoline-8,2′-cyclopenta[b]-naphthalene]-3-carbaldehyde O-n-hexyloxime] | 0.111 µg/mL (≈ 0.163 µM) |
| CON=Cc1cc2c(I)c3c(c(O)c2c(=O)[nH]1)[C@@]1(CC3)C(=O)c2c(O)c3c(c(O)c2C1=O)C(=O)C(OC)=CC3=O [Example 236, (8S)-5-iodo-4′,9,9′-trihydroxy-6′-methoxy-1,1′,3′,5′,8′-pentaoxo-1,1′,2,3′,5′,6,7,8′-octahydrospiro[cyclopenta[g]isoquinoline-8,2′-cyclopenta[b]-naphthalene]-3-carbaldehyde O-methyloxime] | 0.121 µg/mL (≈ 0.184 µM) |
| COC1=CC(=O)c2c(O)c3c(c(O)c2C1=O)C(=O)[C@]1(CCc2cc4cc(C=NOCc5cccc(F)c5)[nH]c(=O)c4c(O)c21)C3=O [Example 218, (8S)-4′,9,9′-trihydroxy-6′-methoxy-1,1′,3′,5′,8′-pentaoxo-1,1′,2,3′,5′,6,7,8′-octahydrospiro[cyclopenta[g]isoquinoline-8,2′-cyclopenta[b]-naphthalene]-3-carbaldehyde O-(3-fluorobenzyl)oxime] | 0.076 µg/mL (≈ 0.122 µM) |
| CCCCCCON=Cc1cc2c(I)c3c(c(O)c2c(=O)[nH]1)[C@@]1(CC3)C(=O)c2c(O)c3c(c(O)c2C1=O)C(=O)C(OC)=CC3=O [Example 230, (8S)-5-iodo-4′,9,9′-trihydroxy-6′-methoxy-1,1′,3′,5′,8′-pentaoxo-1,1′,2,3′,5′,6,7,8′-octahydrospiro[cyclopenta[g]isoquinoline-8,2′-cyclopenta[b]-naphthalene]-3-carbaldehyde O-n-hexyloxime] | 0.091 µg/mL (≈ 0.125 µM) |
| COC1=CC(=O)c2c(O)c3c(c(O)c2C1=O)C(=O)[C@]1(CCc2c1c(O)c1c(=O)[nH]c(C=NOCc4cccc(F)c4)cc1c2I)C3=O [Example 233, (8S)-5-iodo-4′,9,9′-trihydroxy-6′-methoxy-1,1′,3′,5′,8′-pentaoxo-1,1′,2,3′,5′,6,7,8′-octahydrospiro[cyclopenta[g]isoquinoline-8,2′-cyclopenta[b]-naphthalene]-3-carbaldehyde O-(3-fluorobenzyl)oxime] | 0.1 µg/mL (≈ 0.133 µM) |
| COC1=CC(=O)c2c(O)c3c(c(O)c2C1=O)C(=O)C1(CCc2cc4cc(C=NOCc5cccc(Cl)c5)[nH]c(=O)c4c(O)c21)C3=O (centres unmarked) [Example 127, 4′,9,9′-Trihydroxy-6′-methoxy-1,1′,3′,5′,8′-pentaoxo-1,1′,2,3′,5′,6,7,8′-octahydrospiro[cyclopenta[g]isoquinoline-8,2′-cyclopenta[b]-naphthalene]-3-carbaldehyde O-(3-chlorobenzyl)oxime] | 0.155 µg/mL (≈ 0.242 µM) |
| COc1cccc2c1C(=O)c1c(O)c3c(c(O)c1C2=O)C[C@@](O)(C(=O)CO)C[C@@H]3O[C@H]1C[C@H](N)[C@H](O)[C@H](C)O1 [adriamycin] | 0.021 µg/mL (≈ 0.0386 µM) |
| C/C=C/C=C/c1cc2cc3c(c(O)c2c(=O)[nH]1)C1(CC3)C(=O)c2c(O)c3c(c(O)c2C1=O)C(=O)C(OC)=CC3=O (centres unmarked) [fredericamycin, fredericamycin A] | 0.279 µg/mL (≈ 0.517 µM) |
| COC1=CC(=O)c2c(O)c3c(c(O)c2C1=O)C(=O)[C@]1(CCc2c1c(O)c1c(=O)[nH]c(C=NOC(C)C)cc1c2Br)C3=O [Example 224, (8S)-5-bromo-4′,9,9′-trihydroxy-6′-methoxy-1,1′,3′,5′,8′-pentaoxo-1,1′,2,3′,5′,6,7,8′-octahydrospiro[cyclopenta[g]isoquinoline-8,2′-cyclopenta[b]-naphthalene]-3-carbaldehyde O-isopropyloxime] | 0.047 µg/mL (≈ 0.0737 µM) |
| COC1=CC(=O)c2c(O)c3c(c(O)c2C1=O)C(=O)[C@]1(CCc2cc4cc(C=NOC(C)C)[nH]c(=O)c4c(O)c21)C3=O [Example 214, (8S)-4′,9,9′-trihydroxy-6′-methoxy-1,1′,3′,5′,8′-pentaoxo-1,1′,2,3′,5′,6,7,8′-octahydrospiro[cyclopenta[g]isoquinoline-8,2′-cyclopenta[b]-naphthalene]-3-carbaldehyde O-isopropyloxime] | 0.022 µg/mL (≈ 0.0394 µM) |
| COC1=CC(=O)c2c(O)c3c(c(O)c2C1=O)C(=O)[C@]1(CCc2c1c(O)c1c(=O)[nH]c(C=NOCc4cccc(Cl)c4)cc1c2Br)C3=O [Example 203, (8S)-5-bromo-4′,9,9′-trihydroxy-6′-methoxy-1,1′,3′,5′,8′-pentaoxo-1,1′,2,3′,5′,6,7,8′-octahydrospiro[cyclopenta[g]isoquinoline-8,2′-cyclopenta[b]-naphthalene]-3-carbaldehyde O-(3-chlorobenzyl)oxime] | 0.159 µg/mL (≈ 0.221 µM) |
| COC1=CC(=O)c2c(O)c3c(c(O)c2C1=O)C(=O)[C@]1(CCc2c1c(O)c1c(=O)[nH]c(C=NOCCCN4CCN(c5cccc(Cl)c5)CC4)cc1c2Br)C3=O [Example 212, (8S)-5-bromo-4′,9,9′-trihydroxy-6′-methoxy-1,1′,3′,5′,8′-pentaoxo-1,1′,2,3′,5′,6,7,8′-octahydrospiro[cyclopenta[g]isoquinoline-8,2′-cyclopenta[b]-naphthalene]-3-carbaldehyde O-[3-(4-(3-chlorophenyl)-piperazine-1-yl)propyl]oxime] | 0.21 µg/mL (≈ 0.252 µM) |
| COC1=CC(=O)c2c(O)c3c(c(O)c2C1=O)C(=O)[C@]1(CCc2c1c(O)c1c(=O)[nH]c(C=NOCc4ccccc4)cc1c2Br)C3=O [Example 197, (8S)-5-bromo-4′,9,9′-trihydroxy-6′-methoxy-1,1′,3′,5′,8′-pentaoxo-1,1′,2,3′,5′,6,7,8′-octahydrospiro[cyclopenta[g]isoquinoline-8,2′-cyclopenta[b]-naphthalene]-3-carbaldehyde-O-benzyloxime] | 0.034 µg/mL (≈ 0.0496 µM) |
| COC1=CC(=O)c2c(O)c3c(c(O)c2C1=O)C(=O)[C@]1(CCc2c1c(O)c1c(=O)[nH]c(C=NOCc4ccccc4)cc1c2I)C3=O [Example 234, (8S)-5-iodo-4′,9,9′-trihydroxy-6′-methoxy-1,1′,3′,5′,8′-pentaoxo-1,1′,2,3′,5′,6,7,8′-octahydrospiro[cyclopenta[g]isoquinoline-8,2′-cyclopenta[b]-naphthalene]-3-carbaldehyde O-benzyloxime] | 0.052 µg/mL (≈ 0.071 µM) |
| COC1=CC(=O)c2c(O)c3c(c(O)c2C1=O)C(=O)[C@]1(CCc2c1c(O)c1c(=O)[nH]c(C=NOCCN4CCOCC4)cc1c2Br)C3=O [Example 192, (8S)-5-bromo-4′,9,9′-trihydroxy-6′-methoxy-1,1′,3′,5′,8′-pentaoxo-1,1′,2,3′,5′,6,7,8′-octahydrospiro[cyclopenta[g]isoquinoline-8,2′-cyclopenta[b]-naphthalene]-3-carbaldehyde O-[2-morpholine-4-yl-ethyl)oxime] | 0.075 µg/mL (≈ 0.106 µM) |
